Experimental data reported in patent US5977133A, “Pyridone antibiotic with improved safety profile” (priority 1998, dated 1999).
Counter-ions that a name gives are not always drawn.

What was measured:
Format in all cases: cell-based
E. faecium (CiproS) = test: In vitro MIC, agar dilution; conditions: Enterococcus faecium
B. fragilis = test: In vitro MIC, agar dilution; conditions: Bacteroides fragilis
S. pneumoniae (PenS) = test: In vitro MIC, agar dilution; conditions: Streptococcus pneumoniae
Enterococcus spp. (VanR) = test: In vitro MIC, agar dilution
S. pneumoniae (PenR) = test: In vitro MIC, agar dilution; conditions: Streptococcus pneumoniae
Providencia spp. = test: In vitro MIC, agar dilution
Shigella spp. = test: microbe, parasite or virus in culture; conditions: read-out: MIC Range
M. catarrhalis = test: In vitro MIC, agar dilution; conditions: Moraxella catarrhalis
C. difficile = test: In vitro MIC, agar dilution; conditions: Clostridioides difficile
C. freundii = test: In vitro MIC, agar dilution; conditions: Citrobacter freundii
N. gonorrhoeae = test: In vitro MIC, agar dilution; conditions: Neisseria gonorrhoeae
E. faecium (CiproR) = test: In vitro MIC, agar dilution; conditions: Enterococcus faecium; E. faecium (CiproR), 2 isolates; read-out: MIC Range
P. aeruginosa (CiproS) = test: In vitro MIC, agar dilution; conditions: Pseudomonas aeruginosa, P. aeruginosa (CiproS), 24 isolates
E. faecalis (VanS) = test: In vitro MIC, agar dilution; conditions: Enterococcus faecalis
P. aeruginosa (CiproR) = test: In vitro MIC, agar dilution; conditions: Pseudomonas aeruginosa, P. aeruginosa (CiproR), 20 isolates
H. influenzae = test: In vitro MIC, agar dilution; conditions: Haemophilus influenzae, H. influenzae, 18 isolates
H. pylori = test: In vitro MIC, agar dilution; conditions: Helicobacter pylori
Enterobacter spp. = test: In vitro MIC, agar dilution
S. aureus (CiproS) = test: In vitro MIC, agar dilution; conditions: Staphylococcus aureus
P. mirabilis = test: In vitro MIC, agar dilution; conditions: Proteus mirabilis
S. pneumoniae (CiproR) = test: In vitro MIC, agar dilution; conditions: Streptococcus pneumoniae, read-out: MIC Range
M. avium = test: In vitro MIC, agar dilution; conditions: Mycobacterium avium
Salmonella spp. = test: In vitro MIC, agar dilution; conditions: 23 isolates
Procedure, shortened: (§1)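 Agar dilution plates were inoculated with ~10^4 CFU per spot by replicator, using 1:100 dilutions (1:10 for slow growers) and incubated at 35–37 °C for 20–24 h. MIC is the lowest concentration giving no growth, where slight haze or sparse colonies count as none, judged against a compound-free BHI agar control.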

E. coli = test: In vitro MIC, agar dilution; conditions: Escherichia coli, 25 isolates
Procedure, shortened: as §1

M. pneumoniae = test: In vitro MIC, agar dilution; conditions: Mycoplasmoides pneumoniae; M. pneumoniae, 7 isolates; read-out: MIC Range
S. pyogenes = test: In vitro MIC, agar dilution; conditions: Streptococcus pyogenes
S. epidermidis (CiproS) = test: In vitro MIC, agar dilution; conditions: Staphylococcus epidermidis
S. aureus (CiproR) = test: In vitro MIC, agar dilution; conditions: Staphylococcus aureus
S. epidermidis (CiproR) = test: In vitro MIC, agar dilution; conditions: Staphylococcus epidermidis

In the case of Cc1c(N2C[C@@H](N)C3(CC3)C2)c(F)cn2c(=O)c(C(=O)O)cc(C3CC3)c12 [Example 5, 1-cyclopropyl-8-(7(S)-amino-5-azaspiror2.41heptvl)-7-fluoro-9-methyl4-oxo-4H-quinolizine-3-carboxylic acid hydrochloride], the MIC90 (E. faecium (CiproS)) is reported as 0.5 µg/mL, the MIC (E. faecium (CiproS); read-out: MIC Range) is reported as 0.25 to 0.5 µg/mL and the MIC50 (E. faecium (CiproS); E. faecium (CiproS), 16 isolates, read-out: MIC50) is reported as 0.5 µg/mL. For the same molecule, the MIC50 (B. fragilis) was 0.03 µg/mL, the MIC90 (B. fragilis) was 0.03 µg/mL and the MIC (B. fragilis; B. fragilis, 18 isolates, read-out: MIC Range) was 0.015 to 0.06 µg/mL. It also gave an MIC90 (S. pneumoniae (PenS)) of 0.06 µg/mL, an MIC50 (S. pneumoniae (PenS); S. pneumoniae (PenS), 20 isolates, read-out: MIC50) of 0.06 µg/mL and an MIC (S. pneumoniae (PenS); S. pneumoniae (PenS), 20 isolates, read-out: MIC Range) of 0.03 to 0.06 µg/mL. The MIC90 (Enterococcus spp. (VanR); Enterococcus) was 0.5 µg/mL, the MIC50 (Enterococcus spp. (VanR); Enterococcus spp. (VanR), 21 isolates, read-out: MIC50) was 0.5 µg/mL and the MIC (Enterococcus spp. (VanR); Enterococcus, read-out: MIC Range) was 0.25 to 4 µg/mL. For the same molecule, the MIC90 (S. pneumoniae (PenR)) was 0.06 µg/mL, the MIC50 (S. pneumoniae (PenR); S. pneumoniae (PenR), 25 isolates, read-out: MIC50) was 0.06 µg/mL and the MIC (S. pneumoniae (PenR); S. pneumoniae (PenR), 25 isolates, read-out: MIC Range) was 0.03 to 0.06 µg/mL. The MIC90 (Providencia spp.; Providencia) was 0.06 µg/mL, the MIC50 (Providencia spp.; Providencia spp., 28 isolates, read-out: MIC50) was 0.015 µg/mL and the MIC (Providencia spp.; Providencia spp., 28 isolates, read-out: MIC Range) was 0.008 to 0.25 µg/mL. For the same molecule, the MIC (Shigella spp.) was 0.001 to 0.008 µg/mL, the MIC90 (M. catarrhalis) was 0.03 µg/mL and the MIC50 (M. catarrhalis; M. catarrhalis, 18 isolates, read-out: MIC50) was 0.015 µg/mL. The MIC (M. catarrhalis; M. catarrhalis, 18 isolates, read-out: MIC Range) was 0.015 to 0.03 µg/mL, the MIC90 (C. difficile) was 0.25 µg/mL and the MIC (C. difficile; read-out: MIC Range) was 0.12 to 0.25 µg/mL. For the same molecule, the MIC50 (C. difficile; C. difficile, 10 isolates, read-out: MIC50) was 0.25 µg/mL, the MIC90 (C. freundii) was 0.12 µg/mL and the MIC50 (C. freundii; C. freundii, 20 isolates, read-out: MIC50) was 0.015 µg/mL. It also gave an MIC (C. freundii; C. freundii, 20 isolates, read-out: MIC Range) of 0.008 to 0.12 µg/mL, an MIC90 (N. gonorrhoeae) of 0.015 µg/mL and an MIC50 (N. gonorrhoeae; N. gonorrhoeae, 12 isolates, read-out: MIC50) of 0.002 µg/mL. It also gave an MIC (N. gonorrhoeae; N. gonorrhoeae, 12 isolates, read-out: MIC Range) of 0.002 to 0.015 µg/mL, an MIC (E. faecium (CiproR)) of 0.5 to 4 µg/mL and an MIC50 (P. aeruginosa (CiproS); read-out: MIC50) of 0.12 µg/mL. The MIC90 (P. aeruginosa (CiproS); read-out: MIC90) was 1 µg/mL, the MIC (P. aeruginosa (CiproS); read-out: MIC Range) was 0.06 to 1 µg/mL and the MIC90 (E. faecalis (VanS)) was 0.25 µg/mL. The MIC (E. faecalis (VanS); read-out: MIC Range) was 0.06 to 0.25 µg/mL, the MIC50 (E. faecalis (VanS); E. faecalis (VanS), 17 isolates, read-out: MIC50) was 0.12 µg/mL and the MIC50 (P. aeruginosa (CiproR); read-out: MIC50) was 8 µg/mL. The MIC90 (P. aeruginosa (CiproR); read-out: MIC90) was 16 µg/mL, the MIC (P. aeruginosa (CiproR); read-out: MIC Range) was 4 to 16 µg/mL and the MIC50 (H. influenzae; read-out: MIC50) was 0.002 µg/mL. The MIC90 (H. influenzae; read-out: MIC90) was 0.008 µg/mL, the MIC (H. influenzae; read-out: MIC Range) was 0.001 to 0.008 µg/mL and the MIC50 (H. pylori) was 0.03 µg/mL. It also gave an MIC90 (H. pylori) of 0.06 µg/mL, an MIC (H. pylori; H. pylori, 17 isolates, read-out: MIC Range) of 0.015 to 0.06 µg/mL and an MIC90 (Enterobacter spp.; Enterobacter) of 0.03 µg/mL. The MIC50 (Enterobacter spp.; Enterobacter spp., 35 isolates, read-out: MIC50) was 0.015 µg/mL, the MIC (Enterobacter spp.; Enterobacter spp., 35 isolates, read-out: MIC Range) was 0.004 to 0.12 µg/mL and the MIC90 (S. aureus (CiproS)) was 0.015 µg/mL. It also gave an MIC50 (S. aureus (CiproS); S. aureus (CiproS), 21 isolates, read-out: MIC50) of 0.015 µg/mL, an MIC (S. aureus (CiproS); S. aureus (CiproS), 21 isolates, read-out: MIC Range) of 0.008 to 0.03 µg/mL and an MIC50 (P. mirabilis) of 0.03 µg/mL. It also gave an MIC90 (P. mirabilis) of 0.06 µg/mL, an MIC (P. mirabilis; read-out: MIC Range) of 0.015 to 0.12 µg/mL and an MIC (S. pneumoniae (CiproR)) of 0.06 to 0.12 µg/mL. For the same molecule, the MIC (M. avium; read-out: MIC Range) was 0.25 to 4 µg/mL, the MIC50 (M. avium; M. avium, 20 isolates, read-out: MIC50) was 1 µg/mL and the MIC90 (M. avium; M. avium, 20 isolates, read-out: MIC90) was 2 µg/mL. It also gave an MIC (Salmonella spp.) of 0.004 to 0.12 µg/mL, an MIC50 (Salmonella spp.; read-out: MIC50) of 0.015 µg/mL and an MIC90 (Salmonella spp.; read-out: MIC90) of 0.03 µg/mL. For the same molecule, the MIC (E. coli) was 0.004 to 0.015 µg/mL, the MIC50 (E. coli; read-out: MIC50) was at most 0.004 µg/mL and the MIC90 (E. coli; read-out: MIC90) was 0.015 µg/mL. For the same molecule, the MIC (M. pneumoniae) was 0.015 to 0.03 µg/mL, the MIC50 (S. pyogenes) was 0.03 µg/mL and the MIC90 (S. pyogenes) was 0.03 µg/mL. It also gave an MIC (S. pyogenes; S. pyogenes, 21 isolates, read-out: MIC Range) of 0.015 to 0.06 µg/mL, an MIC90 (S. epidermidis (CiproS)) of 0.03 µg/mL and an MIC50 (S. epidermidis (CiproS); S. epidermidis (CiproS), 23 isolates, read-out: MIC50) of 0.015 µg/mL. For the same molecule, the MIC (S. epidermidis (CiproS); S. epidermidis (CiproS), 23 isolates, read-out: MIC Range) was 0.004 to 0.03 µg/mL, the MIC90 (S. aureus (CiproR)) was 0.25 µg/mL and the MIC50 (S. aureus (CiproR); S. aureus (CiproR), 25 isolates, read-out: MIC50) was 0.12 µg/mL. It also gave an MIC (S. aureus (CiproR); S. aureus (CiproR), 25 isolates, read-out: MIC Range) of 0.03 to 0.5 µg/mL, an MIC90 (S. epidermidis (CiproR)) of 0.25 µg/mL and an MIC (S. epidermidis (CiproR); read-out: MIC Range) of 0.12 to 1 µg/mL. For the same molecule, the MIC50 (S. epidermidis (CiproR); S. epidermidis (CiproR), 11 isolates, read-out: MIC50) was 0.25 µg/mL.
